Experimental data taken from patent US20240294489A1 (Captor Therapeutics S.A., priority 2020, published 2024).
Where two headings read alike, the source gives them in different places.

Tests used:
Assay type in all cases: cell-based
KG-1 cells = test: Cell viability CTG assay, KG-1; details: Homo sapiens; KG-1, 72 h, 0.001-50 μM; read-out: KG-1 Geomean absolute IC50 by molecule, 72 H
Experimental: (§1) The effect of various compounds of the invention and various reference compounds on cell viability in various cell lines was investigated, using the Cell Viability—CTG Assay Protocol below. Hep3B, Kelly, H929, KG-1 and SNU-398 cells were maintained in respective cell medium (see Table 8, below). The cells were seeded on the 96-well or 384-white plates, and the compounds to be tested were added at the desired concentration range. Compounds are diluted in DMSO, and the DMSO concentration is kept constant at 0.25% v/v across the assay plate. After 72 h incubation (37° C., 5% CO2), CellTiter-Glo® Reagent (Promega/G7570) was added to the wells. Plates are shaken for 4 minutes and incubated for 8 minutes in the dark prior to reading luminescence (LU) by using the CLARIOstar Multimode Plate Reader. The signal is proportional to the amount of ATP, which is directly proportional to the number of cells present in the culture.
(§2) Luminescence (RLU) values were normalized to DMSO control. Dose response is assessed by non-linear regression and IC50 calculation with the average of technical duplicate of percentage inhibition. IC50 values are reported as absolute IC50 values, being the concentration of test compound at the intersection of the concentration-response curves with T/C=50%. For calculation of mean IC50 values the geometric mean is used.

Ikaros (IKZF1) = target: T1, Ikaros (IKZF1) (Homo sapiens, UniProt Q13422+Q96SW2); test: Ikaros degradation assay, H929 cell line; details: H929 cells, 24 h; for inhibition at 20 µM / inhibition at 10 µM: NCI-H929, read-out: % of IKZF1 protein reduction
T1 construct: Ikaros degradation in the H929 cell line was investigated; endogenous in cells; host or cells: H929
Experimental: (§3) Cells were seeded on 6- or 12-well plates, and the compounds to be tested were added at the desired concentration range. […] After 24 h incubation (37° C., 5% CO2), cells were harvested, washed and cell lysates were prepared using RIPA lysis buffer. The amount of protein was determined via BCA assay, and the appropriate quantity was then loaded on the precast gel for the protein separation. After primary and secondary Ab staining, the membranes were washed and signals developed. The densitometry analysis was implemented to obtain the numeric values used later in the protein level evaluation process.

H929 cells = test: Cell viability CTG assay, H929; set-up: key to Geomean absolute IC50 by molecule, 72 H: Inactive represents IC50 > 50 μM; C represents 50 μM ≥ IC50 > 5 μM; details: H929, 72 h, 0.001-50 μM; for IC50: Homo sapiens, NCI-H929, read-out: Geomean absolute IC50 by molecule, 72 H
Experimental: as §1, §2

Kelly cells = test: Cell viability CTG assay, Kelly; details: 72 h, 0.001-50 μM, read-out: Kelly Geomean absolute IC50 by molecule, 72 H
Experimental: as §1, §2

Hep3B cells = test: Cell viability CTG assay, Hep3B; details: Homo sapiens, 72 h, 0.001-50 μM, read-out: Hep3B Geomean absolute IC50 by molecule, 72 H
Experimental: as §1, §2

SALL4 = target: T2, SALL4 (Homo sapiens, UniProt Q96SW2+Q9UJQ4); test: SALL4 degradation assay, Kelly cell line (Western blot densitometry); details: Kelly cells, 24 h; for % of SALL4 protein reduction: 100 nM, average from n ≥ 2 experiments
T2 construct: SALL4 degradation in the Kelly cell line was investigated; endogenous in cells; host or cells: Kelly
Experimental: as §3

GSPT1 = target: T3, GSPT1 (Homo sapiens, UniProt P15170+Q96SW2); test: GSPT1 degradation assay, Hep3B cell line; details: HEP3B cells, 24 h, read-out: % of GSPT1 protein reduction
T3 construct: GSPT1 degradation in the Hep3B cell line was investigated; endogenous in cells; host or cells: Hep3B
Experimental: Hep3B cells were maintained in EMEM medium, supplemented with penicillin/streptomycin and 10% Fetal Bovine Serum (FBS). Cells were seeded on 6- or 12-well plates, and the compounds to be tested were added at the desired concentration range. Final DMSO concentration was 0.25%. After 24 h incubation (37° C., 5% CO2), cells were harvested, washed and cell lysates were prepared using RIPA lysis buffer. The amount of protein was determined via BCA assay, and the appropriate quantity was then loaded on the precast gel for the protein separation. After primary and secondary Ab staining, the membranes were washed and signals developed. The densitometry analysis was implemented to obtain the numeric values used later in the protein level evaluation process. Densitometry values were normalized to the loading control and calculated as [%] of the DMSO control.

Aiolos (IKZF3) = target: T4, Aiolos (IKZF3) (Homo sapiens, UniProt Q96SW2+Q9UKT9); test: Aiolos degradation assay, H929 cell line; details: H929 cells, 20 μM, 24 h
T4 construct: Aiolos degradation in the H929 cell line was investigated; endogenous in cells; host or cells: H929
Experimental: as §3

T4 sequence (Q9UKT9 whole entry): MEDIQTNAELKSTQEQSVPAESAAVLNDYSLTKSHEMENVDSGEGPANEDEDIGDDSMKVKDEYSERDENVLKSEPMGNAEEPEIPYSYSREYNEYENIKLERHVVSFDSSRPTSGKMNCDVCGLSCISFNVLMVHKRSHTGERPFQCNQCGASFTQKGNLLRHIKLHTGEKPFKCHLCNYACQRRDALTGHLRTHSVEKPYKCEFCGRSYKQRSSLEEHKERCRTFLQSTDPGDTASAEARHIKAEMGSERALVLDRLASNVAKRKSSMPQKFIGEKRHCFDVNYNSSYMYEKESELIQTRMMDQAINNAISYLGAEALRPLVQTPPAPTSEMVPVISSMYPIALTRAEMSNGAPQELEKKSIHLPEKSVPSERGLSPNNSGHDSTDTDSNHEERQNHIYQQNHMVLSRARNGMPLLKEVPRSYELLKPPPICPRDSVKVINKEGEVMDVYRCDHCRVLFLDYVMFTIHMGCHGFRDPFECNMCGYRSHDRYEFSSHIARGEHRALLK
T4 sequence (Q96SW2 whole entry): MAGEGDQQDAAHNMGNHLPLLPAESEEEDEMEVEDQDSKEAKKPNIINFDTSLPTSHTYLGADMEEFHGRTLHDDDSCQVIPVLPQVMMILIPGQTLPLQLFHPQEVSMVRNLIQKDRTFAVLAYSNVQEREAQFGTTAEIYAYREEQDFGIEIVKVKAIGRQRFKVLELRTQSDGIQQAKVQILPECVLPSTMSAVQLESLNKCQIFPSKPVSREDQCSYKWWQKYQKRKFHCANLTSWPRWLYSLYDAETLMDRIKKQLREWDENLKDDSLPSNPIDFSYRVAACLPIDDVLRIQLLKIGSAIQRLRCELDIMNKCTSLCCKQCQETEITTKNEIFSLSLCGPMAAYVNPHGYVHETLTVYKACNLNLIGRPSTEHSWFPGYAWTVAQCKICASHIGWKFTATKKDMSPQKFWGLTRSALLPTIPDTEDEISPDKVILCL
T4 sequence (Q16531 whole entry partner): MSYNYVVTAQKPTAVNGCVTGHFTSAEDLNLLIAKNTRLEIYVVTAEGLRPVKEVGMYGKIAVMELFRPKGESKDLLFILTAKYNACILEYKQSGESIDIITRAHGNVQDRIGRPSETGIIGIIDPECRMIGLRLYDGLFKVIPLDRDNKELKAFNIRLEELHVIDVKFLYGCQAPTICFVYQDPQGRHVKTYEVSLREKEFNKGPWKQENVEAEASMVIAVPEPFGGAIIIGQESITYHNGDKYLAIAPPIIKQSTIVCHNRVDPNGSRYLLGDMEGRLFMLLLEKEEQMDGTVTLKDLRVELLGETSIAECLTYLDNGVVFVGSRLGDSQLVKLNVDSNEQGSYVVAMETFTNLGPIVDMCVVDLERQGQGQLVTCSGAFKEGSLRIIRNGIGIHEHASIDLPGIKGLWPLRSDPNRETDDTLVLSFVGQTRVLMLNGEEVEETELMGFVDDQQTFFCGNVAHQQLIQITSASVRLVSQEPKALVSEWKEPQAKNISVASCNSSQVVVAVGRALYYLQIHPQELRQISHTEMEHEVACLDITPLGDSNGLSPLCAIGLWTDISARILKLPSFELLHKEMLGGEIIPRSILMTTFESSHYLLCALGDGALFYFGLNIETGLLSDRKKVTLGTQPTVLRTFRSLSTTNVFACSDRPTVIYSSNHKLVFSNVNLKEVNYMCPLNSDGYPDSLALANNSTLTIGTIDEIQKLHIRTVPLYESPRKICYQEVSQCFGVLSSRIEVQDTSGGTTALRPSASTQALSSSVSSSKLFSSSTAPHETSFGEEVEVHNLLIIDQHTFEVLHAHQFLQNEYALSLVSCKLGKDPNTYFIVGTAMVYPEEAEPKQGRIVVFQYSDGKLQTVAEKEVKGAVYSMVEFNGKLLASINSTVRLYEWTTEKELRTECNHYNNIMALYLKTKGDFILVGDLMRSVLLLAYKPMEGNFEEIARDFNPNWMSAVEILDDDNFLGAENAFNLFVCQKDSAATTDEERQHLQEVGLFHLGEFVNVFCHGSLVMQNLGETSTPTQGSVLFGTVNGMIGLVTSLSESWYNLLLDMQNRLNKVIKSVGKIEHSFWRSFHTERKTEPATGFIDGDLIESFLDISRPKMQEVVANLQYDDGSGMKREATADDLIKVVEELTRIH
T3 sequence (P15170 whole entry): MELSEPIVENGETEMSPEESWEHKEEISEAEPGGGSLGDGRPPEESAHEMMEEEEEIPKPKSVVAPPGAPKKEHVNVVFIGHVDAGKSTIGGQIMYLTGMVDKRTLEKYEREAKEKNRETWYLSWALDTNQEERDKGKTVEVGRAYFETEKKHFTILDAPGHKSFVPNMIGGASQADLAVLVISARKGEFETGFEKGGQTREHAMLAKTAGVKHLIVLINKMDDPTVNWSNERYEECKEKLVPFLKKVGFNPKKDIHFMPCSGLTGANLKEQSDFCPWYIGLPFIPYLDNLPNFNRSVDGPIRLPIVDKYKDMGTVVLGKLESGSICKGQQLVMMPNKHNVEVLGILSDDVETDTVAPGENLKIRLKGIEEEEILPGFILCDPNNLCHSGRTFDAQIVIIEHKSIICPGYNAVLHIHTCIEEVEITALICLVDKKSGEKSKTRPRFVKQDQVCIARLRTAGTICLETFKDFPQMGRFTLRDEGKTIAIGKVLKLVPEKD
T3 sequence (Q96SW2 whole entry): as the sequence (Q96SW2 whole entry) above
T3 sequence (Q16531 whole entry partner): as the sequence (Q16531 whole entry partner) above
T2 sequence (Q9UJQ4 whole entry): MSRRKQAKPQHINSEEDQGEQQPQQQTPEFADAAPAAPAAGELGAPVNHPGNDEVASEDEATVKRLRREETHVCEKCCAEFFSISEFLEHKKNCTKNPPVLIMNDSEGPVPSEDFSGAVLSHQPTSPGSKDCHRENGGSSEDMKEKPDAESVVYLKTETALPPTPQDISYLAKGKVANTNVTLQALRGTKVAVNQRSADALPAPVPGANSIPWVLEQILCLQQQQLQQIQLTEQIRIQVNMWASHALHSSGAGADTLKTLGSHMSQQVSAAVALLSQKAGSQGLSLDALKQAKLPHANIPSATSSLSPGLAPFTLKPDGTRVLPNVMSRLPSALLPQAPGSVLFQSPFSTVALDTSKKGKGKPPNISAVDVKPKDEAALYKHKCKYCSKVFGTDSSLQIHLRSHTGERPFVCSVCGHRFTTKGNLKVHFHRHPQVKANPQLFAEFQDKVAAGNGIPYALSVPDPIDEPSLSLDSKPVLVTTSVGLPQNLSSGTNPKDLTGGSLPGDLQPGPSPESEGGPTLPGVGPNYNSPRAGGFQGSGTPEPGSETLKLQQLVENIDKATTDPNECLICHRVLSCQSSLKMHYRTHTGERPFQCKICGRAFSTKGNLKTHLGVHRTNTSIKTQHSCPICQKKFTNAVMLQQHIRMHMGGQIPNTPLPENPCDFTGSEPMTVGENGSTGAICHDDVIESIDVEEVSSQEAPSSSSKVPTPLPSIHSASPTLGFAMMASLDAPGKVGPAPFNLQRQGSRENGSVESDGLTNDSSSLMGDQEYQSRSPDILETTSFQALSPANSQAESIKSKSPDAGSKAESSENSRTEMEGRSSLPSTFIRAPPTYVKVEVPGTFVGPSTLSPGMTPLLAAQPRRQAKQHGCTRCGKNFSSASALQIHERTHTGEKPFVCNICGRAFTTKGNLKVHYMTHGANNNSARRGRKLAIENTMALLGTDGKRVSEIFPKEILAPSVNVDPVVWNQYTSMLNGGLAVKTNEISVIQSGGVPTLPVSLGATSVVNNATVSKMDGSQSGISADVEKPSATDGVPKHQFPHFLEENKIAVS
T2 sequence (Q96SW2 whole entry): as the sequence (Q96SW2 whole entry) above
T2 sequence (Q16531 whole entry partner): as the sequence (Q16531 whole entry partner) above
T1 sequence (Q13422 whole entry): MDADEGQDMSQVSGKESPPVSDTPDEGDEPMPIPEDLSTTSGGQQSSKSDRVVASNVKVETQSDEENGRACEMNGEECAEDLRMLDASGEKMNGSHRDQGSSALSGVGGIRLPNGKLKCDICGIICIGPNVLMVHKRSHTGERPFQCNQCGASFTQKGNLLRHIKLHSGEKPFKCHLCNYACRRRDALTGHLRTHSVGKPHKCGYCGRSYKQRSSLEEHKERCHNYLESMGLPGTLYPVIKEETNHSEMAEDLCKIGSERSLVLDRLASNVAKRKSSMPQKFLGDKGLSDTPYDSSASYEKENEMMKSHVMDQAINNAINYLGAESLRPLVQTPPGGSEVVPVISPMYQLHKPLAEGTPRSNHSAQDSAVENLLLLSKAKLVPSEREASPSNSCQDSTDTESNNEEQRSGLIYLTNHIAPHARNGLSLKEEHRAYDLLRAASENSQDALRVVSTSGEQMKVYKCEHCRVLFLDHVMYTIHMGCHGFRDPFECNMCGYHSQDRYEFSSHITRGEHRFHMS
T1 sequence (Q96SW2 whole entry): as the sequence (Q96SW2 whole entry) above
T1 sequence (Q16531 whole entry partner): as the sequence (Q16531 whole entry partner) above

| inhibition at 20 µM (Ikaros (IKZF1); 20 uM) [%] | Geomean absolute IC50 by molecule, 72 H (H929 cells) | IC50 (Hep3B cells) [nM] | % of SALL4 protein reduction (SALL4) [%] | SMILES | IC50 (KG-1 cells) [nM] | IC50 (Kelly cells) [nM] | also measured |
| --- | --- | --- | --- | --- | --- | --- | --- |
| 0 to 24 | Inactive | 100 to 1000 | – | CC(C)C(NC(=O)OC(C)(C)C)C(=O)NCc1ccc2c(c1)CN(C1CCC(=O)NC1=O)C2=O (stereo not shown) [Compound 31, tert-butyl (1-(((2-(2,6-dioxopiperidin-3-yl)-1-oxoisoindolin-5-yl)methyl)amino)-3-methyl-1-oxobutan-2-yl)carbamate] | 1000 to 5000 | 1000 to 5000 | – |
| – | – | ≤ 100 | >80 | [2H]C([2H])(N)c1ccc2c(c1)CN(C1CCC(=O)NC1=O)C2=O (stereo not shown) [Compound 2, 3-(5-(aminomethyl-d2)-1-oxoisoindolin-2-yl)piperidine-2,6-dione] | 100 to 1000 | 100 to 1000 | inhibition at 10 µM (Ikaros (IKZF1); 10 uM): 0 to 24%; IC50 (H929 cells): 5000 to 50000 nM; inhibition at 10 µM (GSPT1; 10 uM): 80 to 100% |
| – | – | – | – | CCCCCC(=O)NCc1ccc2c(c1)CN(C1CCC(=O)NC1=O)C2=O (stereo not shown) [Compound 100, reference compound] | – | – | % of IKZF3 protein reduction (Aiolos (IKZF3); numeric values): 52%; inhibition at 10 µM (Ikaros (IKZF1); 10 uM, numeric values): 52% |
| – | – | ≤ 100 | – | CC(=O)Oc1ccc(COC(=O)NCc2ccc3c(c2)CN(C2CCC(=O)NC2=O)C3=O)cc1 (stereo not shown) [Compound 22, 4-(((((2-(2,6-dioxopiperidin-3-yl)-1-oxoisoindolin-5-yl)methyl)carbamoyl)oxy)methyl)phenyl acetate] | ≤ 100 | 100 to 1000 | IC50 (H929 cells): 5000 to 50000 nM |
| 0 to 24 | Inactive | ≤ 100 | – | Cc1oc(=O)oc1COC(=O)NCc1ccc2c(c1)CN(C1CCC(=O)NC1=O)C2=O (stereo not shown) [Compound 24, (5-methyl-2-oxo-2H-1,3-dioxol-4-yl)methyl N-{[2-(2,6-dioxopiperidin-3-yl)-1-oxo-2,3-dihydro-1H-isoindol-5-yl]methyl}carbamate] | ≤ 100 | 1000 to 5000 | – |
| – | Inactive | ≤ 100 | >80 | CC(=O)Oc1cc(C)cc(C)c1C(C)(C)CC(=O)NCc1ccc2c(c1)CN(C1CCC(=O)NC1=O)C2=O (stereo not shown) [Compound 21, 2-[1-({[2-(2,6-dioxopiperidin-3-yl)-1-oxo-2,3-dihydro-1H-isoindol-5-yl]methyl}carbamoyl)-2-methylpropan-2-yl]-3,5-dimethylphenyl acetate] | 1000 to 5000 | 1000 to 5000 | – |
| 0 to 24 | Inactive | 100 to 1000 | – | C[C@@H](O)[C@H](N)C(=O)NCc1ccc2c(c1)CN(C1CCC(=O)NC1=O)C2=O (stereo partly drawn) [Compound 39, (2S,3R)-2-amino-N-((2-(2,6-dioxopiperidin-3-yl)-1-oxoisoindolin-5-yl)methyl)-3-hydroxybutanamide] | 1000 to 5000 | 1000 to 5000 | – |
| – | Inactive | 100 to 1000 | >80 | N[C@@H](Cc1cnc[nH]1)C(=O)NCc1ccc2c(c1)CN([C@@H]1CCC(=O)NC1=O)C2=O [Compound 27, (S)-2-amino-N-((2-((R)-2,6-dioxopiperidin-3-yl)-1-oxoisoindolin-5-yl)methyl)-3-(1H-imidazol-4-yl)propanamide] | 100 to 1000 | 100 to 1000 | % of IKZF3 protein reduction (Aiolos (IKZF3)): C (C represents 0-24% of IKZF1 protein reduction); inhibition at 10 µM (Ikaros (IKZF1); 10 uM): 0 to 24%; inhibition at 1 µM (GSPT1): 80 to 100% |
| – | – | – | – | Nc1cccc2c1C(=O)N(C1CCC(=O)NC1=O)C2=O (stereo not shown) [Pomalidomide, pomalidomide, reference compound] | – | – | % of IKZF3 protein reduction (Aiolos (IKZF3); numeric values): 87%; % of IKZF1 protein reduction (Ikaros (IKZF1); 10 uM, numeric values): 86%; % of IKZF1 protein reduction (Ikaros (IKZF1); 20 uM, numeric values): 91%; IC50 (H929 cells; numeric values): 61 nM |
| 0 to 24 | Inactive | ≤ 100 | >80 | CC(OC(=O)NCc1ccc2c(c1)CN(C1CCC(=O)NC1=O)C2=O)OC(=O)C(C)C (stereo not shown) [Compound 23, 1-((((2-(2,6-dioxopiperidin-3-yl)-1-oxoisoindolin-5-yl)methyl)carbamoyl)oxy)ethyl isobutyrate] | – | – | – |
| 0 to 24 | Inactive | ≤ 100 | – | NC(Cc1c[nH]c2ccccc12)C(=O)NCc1ccc2c(c1)CN(C1CCC(=O)NC1=O)C2=O (stereo not shown) [Compound 37, 2-amino-N-((2-(2,6-dioxopiperidin-3-yl)-1-oxoisoindolin-5-yl)methyl)-3-(1H-indol-3-yl)propanamide] | 100 to 1000 | 100 to 1000 | – |
| 0 to 24 | Inactive | 100 to 1000 | – | NCC(=O)NCc1ccc2c(c1)CN(C1CCC(=O)NC1=O)C2=O (stereo not shown) [Compound 25, 2-amino-N-((2-(2,6-dioxopiperidin-3-yl)-1-oxoisoindolin-5-yl)methyl)acetamide] | 1000 to 5000 | 1000 to 5000 | – |
| 0 to 24 | – | – | – | CC(C)(C)OC(=O)N[C@@H](Cc1cnc[nH]1)C(=O)NCc1ccc2c(c1)CN([C@@H]1CCC(=O)NC1=O)C2=O [Compound 29, tert-butyl ((S)-1-(((2-((R)-2,6-dioxopiperidin-3-yl)-1-oxoisoindolin-5-yl)methyl)amino)-3-(1H-imidazol-4-yl)-1-oxopropan-2-yl)carbamate] | – | – | % of IKZF3 protein reduction (Aiolos (IKZF3)): C (C represents 0-24% of IKZF1 protein reduction) |
| – | Inactive | 100 to 1000 | – | N[C@@H](Cc1cnc[nH]1)C(=O)NCc1ccc2c(c1)CN([C@H]1CCC(=O)NC1=O)C2=O [Compound 28, (S)-2-amino-N-((2-((S)-2,6-dioxopiperidin-3-yl)-1-oxoisoindolin-5-yl)methyl)-3-(1H-imidazol-4-yl)propanamide] | 100 to 1000 | 100 to 1000 | % of IKZF3 protein reduction (Aiolos (IKZF3)): C (C represents 0-24% of IKZF1 protein reduction); inhibition at 10 µM (Ikaros (IKZF1); 10 uM): 0 to 24%; inhibition at 1 µM (GSPT1): 80 to 100% |
| – | – | – | 53 | O=C1CCC(N2C(=O)c3ccccc3C2=O)C(=O)N1 (stereo not shown) [Thalidomide, reference compound] | – | – | degradation of SALL4 (SALL4; 0.01 μM, FIG. 1): lower activity |
